In assay [1] the target is T1, Dual specificity tyrosine-phosphorylation-regulated kinase 1A (Homo sapiens, UniProt Q13627). Briefly: Inhibition of DYRK1A (unknown origin).
Assay [2] can be described thus: Displacement of [gamma-33P]-ATP from GSK-3 derived from porcine brain using YRRAAVPPSPSLSRHSSPHQSpEDEEE as substrate incubated for 30 mins by scintillation counting analysis. On the set-up: species or system Sus scrofa.
Assay [3] concerns the target T1, Dual specificity tyrosine-phosphorylation-regulated kinase 1A. As to the kind of experiment: Inhibition of GST-fused recombinant human DYRK1A expressed in Escherichia coli using KKISGRLSPIMTEQ as substrate in presence of ATP.
Assay [4] has the same target. Briefly: Inhibition of DYRK1A (unknown origin) using KKISGRLSPIMTEQ as substrate incubated for 30 mins in presence of ATP by ADP-Glo assay. A general note: ADP-Glo first removes unused ATP, then detects ADP through luciferase.
The target is the same in assay [5]. As to the kind of experiment: Inhibition of N-terminal 6His-tagged recombinant human DYRK1A ([…] residues) expressed in Escherichia coli BL21(DE3) using RARPGTPALRE as substrate incubated for 60 mins in presence of ATP/NADH by enzymatic assay.

For eight compounds, IC50 results are on record in ChEMBL document CHEMBL5136986, “DYRK1A inhibitors for disease therapy: Current status and perspectives” (Eur J Med Chem, 2022).

In general, IC50 refers to the midpoint of a concentration-inhibition curve. In the case of `Nc1ncc(-c2ccccc2)nc1C(=O)Nc1cnccc1N1CCC(N)CC1`, in assay [1], inhibition was half-maximal at 0.039 µM (IC50).
In assay [2], `O=c1c2c(ccc3nc(-c4cccnc4)sc32)ncn1C1CC1` gave a 50% inhibitory concentration (IC50) of 0.068 µM.
Consider `O=c1c2c(ccc3nc(-c4cnccn4)sc32)ncn1Cc1ccccc1`, for which the IC50 came out at 0.113 µM in assay [3] and 6 µM in assay [2].
The compound `Nc1ncc(-c2ccccc2F)nc1C(=O)Nc1cnccc1N1CCC(C(=O)O)CC1` gave an IC50 in assay [1] of 0.243 µM.
With `O=C1CCCc2[nH]c3c(Cl)cccc3c21`, the half-inhibitory concentration (IC50) in assay [4] was determined as 1.6 µM.
In assay [2], `O=c1c2c(ccc3nc(-c4cccnc4)sc32)ncn1Cc1ccccc1` showed a 50% inhibitory concentration (IC50) of 3.7 µM.
Turning to `O=C1c2c([nH]c3c(Cl)cccc23)CCC1N1CCCCC1` (centres undefined), the IC50 in assay [4] was greater than 10 µM.
With `COc1c(CC=C(C)C)c(O)cc2oc(-c3ccc(O)cc3O)cc12` [LICOCOUMARONE], the IC50 in assay [5] came to 12.6 µM.
